Laboratory results from US20240327415A1, “Multicomponent Complexes, Including Salts, Crystalline Forms, and Hydrates and Solvates of ENT1 Inhibitors” (iTeos Belgium SA, priority 2023, published 2024).

Legend:
Type in all cases: physicochemical
[1] = Dynamic Vapor Sorption (DVS); conditions: for post-DVS sample (XRPD / appearance): DVS at 25° C.
Description: (§1) METHOD A: In Example 11, approximately 5-15 mg of sample was placed into a mesh vapor sorption balance pan and loaded into either a DVS Intrinsic or DVS Advantage dynamic vapor sorption balance by Surface Measurement Systems. The sample was subjected to a ramping profile from 40-90% relative humidity (RH) at 10% increments, maintaining the sample at each step until a stable weight had been achieved (dm/dt 0.004%, minimum step length 30 minutes, maximum step length 500 minutes) at 25° C. After completion of the sorption cycle, the sample was dried using the same procedure to 0% RH and then a second sorption cycle back to 40% RH was carried out. Two cycles were performed. The weight change during the sorption/desorption cycles were plotted, allowing the hygroscopic nature of the sample to be determined. XRPD analysis was then carried out on the residual solid.
as §1, with “B:” for “A:”, “Examples 2A, 3, 14, and 17,” for “Example 11,”, “10-20” for “5-15”, “determined.” for “determined. XRPD analysis was then carried out on the residual solid.”
as §1, with “Approximately 10-20” for “METHOD A: In Example 11, approximately 5-15”, “RH” for “relative humidity (RH)”, “min,” for “minutes,”, “min)” for “minutes)”, “determined.” for “determined. XRPD analysis was then carried out on the residual solid.”

[2] = XRPD characterization (summary Table 59); conditions: crystallinity
[3] = Variable Temperature X-Ray Powder Diffraction (VT-XRPD)
Description: In the examples below, VT-XRPD analysis was carried out on a Philips X'Pert Pro Multipurpose diffractometer equipped with a temperature chamber. The samples were scanned between 4 and 36° 2θ using Cu K radiation (α1 λ=1.54060 Å; α2=1.54443 Å; β=1.39225 Å; α1: α2 ratio=0.5; most, if not all, B radiation is removed from the beam using an X-ray mirror) running in Bragg-Brentano geometry (step size 0.008° 2θ) using 40 kV/40 mA generator settings. Measurements were carried out from ambient temperature to an upper limit of 250° C., with a final measurement taken after cooling.
VT-XRPD analysis was carried out on a Philips X'Pert Pro Multipurpose diffractometer equipped with a temperature chamber. The samples were scanned between 4 and 36° 2θ using Cu K radiation (α1 λ=1.54060 Å; α2=1.54443 Å; β2=1.39225 Å; α1:α2 ratio=0.5; most, if not all, β radiation is removed from the beam using an X-ray mirror) running in Bragg-Brentano geometry (step size 0.008° 2θ) using 40 kV/40 mA generator settings. Measurements were carried out from ambient temperature to an upper limit of 250° C., with a final measurement taken after cooling.

CCCN1CCNCCCNC(=O)c2cc(OC)c(OC)c(c2)OCCC[C@@H](OC(=O)c2cc(OC)c(OC)c(OC)c2)CC1
DVS: Dehydrates [1]: Dehydrates <15% RH | DVS uptake ([1]; at 80% RH): 8.0% uptake at | moisture uptake (DVS) ([1]; between 0-10% RH, 25° C.): about 6.3% | moisture uptake (DVS) ([1]; between 10-80% RH, 25° C.): 1.7% | XRPD [2]: Crystalline | VT-XRPD: Conv. To Form 5 at [3]: at 80-130 °C | VT-XRPD: Melt from [3]: Melt from 150 °C | VT-XRPD: input form retained at [3]: at 30-50 °C

COc1cc(C(=O)O[C@@H]2CCCOc3cc(cc(OC)c3OC)C(=O)NCCCN3CCCN(CC2)CC3)cc(OC)c1OC.O=S(=O)(O)O
post-DVS sample (XRPD / appearance) [1]: conversion to crystalline Form 8 Compound 1 mono(hydrogen sulfate) | DVS: Conversion to (solid form) ([1]; after DVS at 40% RH): Form 8 after | DVS loss ([1]; at 20-30% RH (desorption)): 8.0% loss at | DVS uptake ([1]; at 40-50% RH (2nd sorption)): 8.1% uptake at | moisture loss (DVS) ([1]; between 20-30% RH): ca. 8.0% | moisture uptake (DVS) ([1]; between 40-40% RH during the sorption cycles): ca. 4.9% | moisture uptake (DVS) ([1]; between 40-50% RH): 8.1% | moisture uptake (DVS) ([1]; between 50-80% RH): ca. 2.2% | XRPD [2]: Crystalline | VT-XRPD: Conv. To Form 8 at [3]: at 40-70 °C | VT-XRPD: Conversion to amorph. At [3]: amorph. At ≥90 °C | temperature above which the sample turned amorphous [3]: greater than 90 °C | temperature range of conversion to crystalline Form 8 Compound 1 mono(hydrogen sulfate) [3]: 40-70 °C

COc1cc(C(=O)O[C@@H]2CCCOc3cc(cc(OC)c3OC)C(=O)NCCCN3CCCN(CC2)CC3)cc(OC)c1OC.O=S(=O)(O)O.O=S(=O)(O)O [crystalline Form 3 Compound 1 di(hydrogen sulfate)]
DVS: solid form conversion [1]: Conversion to P2 | post-DVS sample (XRPD / appearance) [1]: conversion to crystalline Form 2 Compound 1 di(hydrogen sulfate) trihydrate | DVS uptake ([1]; at 80% RH): 7.3% uptake at | moisture uptake (DVS) ([1]; between 0-10% RH, 25° C.): about 5.2% | moisture uptake (DVS) ([1]; between 10-80% RH, 25° C.): ca. 2.1% | moisture uptake (DVS) ([1]; between 40-80% RH, first sorption cycle, 25° C.): ca. 7.1% | XRPD [2]: Partially | VT-XRPD: Conv. To Form 9 from [3]: from 50-160 °C | VT-XRPD: Melt from [3]: Melt from 160 °C | VT-XRPD: input form retained at [3]: at 25-50 °C | temperature range in which the form is retained (VT-XRPD) [3]: 25-40 °C | VT-XRPD Results ([3]; Heating, 50° C., hold 30 min): 3 (trace of 9)
